Measurements: ChEMBL document CHEMBL4024706 (Eur J Med Chem, 2017)

Key:
[1] = target: cAMP-dependent protein kinase catalytic subunit alpha (Homo sapiens) (UniProt P17612); assay: Inhibition of wild-type human partial length PKAC-alpha (G10 to F351 residues) expressed in bacterial expression system assessed as residual activity at 1 uM by Kinomescan method relative to control
[2] = target: LIM domain kinase 1 (Homo sapiens) (UniProt P53667); assay: Inhibition of wild-type human full length LIMK1 (M1 to D647 residues) expressed in bacterial expression system assessed as residual activity at 1 uM by Kinomescan method relative to control
[3] = target: Ribosomal protein S6 kinase alpha-2 (Homo sapiens) (UniProt Q15349); assay: Inhibition of wild-type human partial length C-terminal RSK3 kinase domain 2 (V403 to K700 residues) expressed in bacterial expression system assessed as residual activity at 1 uM by Kinomescan method relative to control
[4] = target: STE20-like serine/threonine-protein kinase (Homo sapiens) (UniProt Q9H2G2); assay: Inhibition of wild-type human partial length SLK (S14 to A307 residues) expressed in bacterial expression system assessed as residual activity at 1 uM by Kinomescan method relative to control
[5] = tested on: Phosphatidylinositol 4,5-bisphosphate 3-kinase catalytic subunit alpha isoform (Homo sapiens), P42336 [I800L]; assay: Inhibition of human partial length PIK3CA I800L mutant (R108 to N1068 residues) expressed in mammalian expression system assessed as residual activity at 1 uM by Kinomescan method relative to control
[6] = target: Calcium/calmodulin-dependent protein kinase type II subunit gamma (Homo sapiens) (UniProt Q13555); assay: Inhibition of wild-type human partial length CAMK2G (R9 to A303 residues) expressed in bacterial expression system assessed as residual activity at 1 uM by Kinomescan method relative to control
[7] = tested on: Tyrosine-protein kinase ABL1 (Homo sapiens), P00519 [H396P]; assay: Inhibition of human phosphorylated ABL1 H396P mutant (S229 to K512 residues) expressed in mammalian expression system assessed as residual activity at 1 uM by Kinomescan method relative to control
[8] = target: Bone morphogenetic protein receptor type-2 (Homo sapiens) (UniProt Q13873); assay: Inhibition of wild-type human partial length BMPR2 (R179 to Q526 residues) expressed in mammalian expression system assessed as residual activity at 1 uM by Kinomescan method relative to control
[9] = target: Tyrosine-protein kinase Yes (Homo sapiens) (UniProt P07947); assay: Inhibition of wild-type human partial length YES (T257 to L543 residues) expressed in bacterial expression system assessed as residual activity at 1 uM by Kinomescan method relative to control
[10] = target: Atypical kinase COQ8A, mitochondrial (Homo sapiens) (UniProt Q8NI60); assay: Inhibition of wild-type human […] ADCK3 (M280 to Q647 residues) expressed in bacterial expression system assessed as residual activity at 1 uM by Kinomescan method relative to control
[11] = target: Dual specificity protein kinase CLK1 (Homo sapiens) (UniProt P49759); assay: Inhibition of wild-type human full length CLK1 (M1 to I484 residues) expressed in bacterial expression system assessed as residual activity at 1 uM by Kinomescan method relative to control
[12] = target: Mitogen-activated protein kinase 15 (Homo sapiens) (UniProt Q8TD08); assay: Inhibition of wild-type human partial length ERK8 (M1 to P437 residues) expressed in bacterial expression system assessed as residual activity at 1 uM by Kinomescan method relative to control
[13] = target: Focal adhesion kinase 1 (Homo sapiens) (UniProt Q05397); assay: Inhibition of wild-type human partial length FAK (D402 to R696 residues) expressed in bacterial expression system assessed as residual activity at 1 uM by Kinomescan method relative to control
[14] = tested on: eIF-2-alpha kinase GCN2 (Homo sapiens), Q9P2K8 [S808G]; assay: Inhibition of […] human partial length GCN2 kinase domain 2 (R585 to T1018 residues) S808G mutant expressed in bacterial expression system assessed as residual activity at 1 uM by Kinomescan method relative to control
[15] = target: Mast/stem cell growth factor receptor Kit (Homo sapiens) (UniProt P10721); assay: Inhibition of wild-type human partial length KIT (I571 to D952 residues) expressed in bacterial expression system assessed as residual activity at 1 uM by Kinomescan method relative to control
[16] = target: Serine/threonine-protein kinase Nek10 (Homo sapiens) (UniProt Q6ZWH5); assay: Inhibition of wild-type human partial length NEK10 (L488 to R809 residues) expressed in mammalian expression system assessed as residual activity at 1 uM by Kinomescan method relative to control
[17] = target: Tyrosine-protein kinase JAK2 (Homo sapiens) (UniProt O60674); assay: Inhibition of wild-type human partial length JAK2 JH1 catalytic domain (A829 to G1132 residues) expressed in mammalian expression system assessed as residual activity at 1 uM by Kinomescan method relative to control
[18] = target: MAP kinase-activated protein kinase 5 (Homo sapiens) (UniProt Q8IW41); assay: Inhibition of wild-type human partial length MAPKAPK5 (M1 to D322 residues) expressed in mammalian expression system assessed as residual activity at 1 uM by Kinomescan method relative to control
[19] = target: Phosphatidylinositol 4,5-bisphosphate 3-kinase catalytic subunit beta isoform (Homo sapiens) (UniProt P42338); assay: Inhibition of wild-type human partial length PIK3CB (P118 to S1070 residues) expressed in mammalian expression system assessed as residual activity at 1 uM by Kinomescan method relative to control
[20] = target: Transient receptor potential cation channel subfamily M member 6 (Homo sapiens) (UniProt Q9BX84); assay: Inhibition of wild-type human partial length TRPM6 (Q1723 to I1998 residues) expressed in mammalian expression system assessed as residual activity at 1 uM by Kinomescan method relative to control
[21] = target: Fibroblast growth factor receptor 3 (Homo sapiens) (UniProt P22607); assay: Inhibition of wild-type human partial length FGFR3 (R442 to S771 residues) expressed in bacterial expression system assessed as residual activity at 1 uM by Kinomescan method relative to control
[22] = target: Serine/threonine-protein kinase Nek5 (Homo sapiens) (UniProt Q6P3R8); assay: Inhibition of wild-type human partial length NEK5 (M1 to M279 residues) expressed in bacterial expression system assessed as residual activity at 1 uM by Kinomescan method relative to control
[23] = target: Activated CDC42 kinase 1 (Homo sapiens) (UniProt Q07912); assay: Inhibition of wild-type human partial length TNK2 (S159 to D474 residues) expressed in bacterial expression system assessed as residual activity at 1 uM by Kinomescan method relative to control
[24] = target: Membrane-associated tyrosine- and threonine-specific cdc2-inhibitory kinase (Homo sapiens) (UniProt Q99640); assay: Inhibition of wild-type human partial length PKMYT1 (A88 to G366 residues) expressed in bacterial expression system assessed as residual activity at 1 uM by Kinomescan method relative to control

Sequence of Activated CDC42 kinase 1 (Homo sapiens) (Q07912 whole entry, looked up, the tested form may be a part): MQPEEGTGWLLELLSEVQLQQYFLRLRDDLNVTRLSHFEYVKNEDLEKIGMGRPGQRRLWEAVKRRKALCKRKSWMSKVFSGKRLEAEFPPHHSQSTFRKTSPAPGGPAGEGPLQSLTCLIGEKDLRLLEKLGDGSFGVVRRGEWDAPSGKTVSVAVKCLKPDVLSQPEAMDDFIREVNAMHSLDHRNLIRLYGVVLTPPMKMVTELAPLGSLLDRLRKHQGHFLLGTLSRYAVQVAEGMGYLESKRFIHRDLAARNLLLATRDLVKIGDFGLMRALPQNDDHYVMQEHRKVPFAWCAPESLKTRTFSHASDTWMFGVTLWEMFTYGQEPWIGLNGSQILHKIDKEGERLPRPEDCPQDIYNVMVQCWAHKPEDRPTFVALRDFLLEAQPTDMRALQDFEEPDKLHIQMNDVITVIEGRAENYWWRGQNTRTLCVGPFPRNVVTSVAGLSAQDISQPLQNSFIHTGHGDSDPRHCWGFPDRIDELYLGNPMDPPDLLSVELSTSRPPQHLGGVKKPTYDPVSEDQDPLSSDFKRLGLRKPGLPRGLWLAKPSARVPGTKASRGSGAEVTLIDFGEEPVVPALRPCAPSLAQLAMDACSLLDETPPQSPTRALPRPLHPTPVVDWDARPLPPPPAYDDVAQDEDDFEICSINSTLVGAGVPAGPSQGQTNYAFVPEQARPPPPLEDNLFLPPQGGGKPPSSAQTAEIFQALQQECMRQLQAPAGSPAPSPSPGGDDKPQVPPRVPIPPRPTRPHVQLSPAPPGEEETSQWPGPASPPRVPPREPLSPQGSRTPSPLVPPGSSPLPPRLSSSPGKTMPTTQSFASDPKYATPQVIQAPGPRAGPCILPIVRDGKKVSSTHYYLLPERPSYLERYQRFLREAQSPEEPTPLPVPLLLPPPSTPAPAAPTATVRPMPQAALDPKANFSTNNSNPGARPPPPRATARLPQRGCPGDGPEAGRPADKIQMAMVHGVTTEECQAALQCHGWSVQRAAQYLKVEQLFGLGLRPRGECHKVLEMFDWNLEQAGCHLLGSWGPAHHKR
Sequence of Tyrosine-protein kinase JAK2 (Homo sapiens) (O60674 whole entry, the tested form may be a part): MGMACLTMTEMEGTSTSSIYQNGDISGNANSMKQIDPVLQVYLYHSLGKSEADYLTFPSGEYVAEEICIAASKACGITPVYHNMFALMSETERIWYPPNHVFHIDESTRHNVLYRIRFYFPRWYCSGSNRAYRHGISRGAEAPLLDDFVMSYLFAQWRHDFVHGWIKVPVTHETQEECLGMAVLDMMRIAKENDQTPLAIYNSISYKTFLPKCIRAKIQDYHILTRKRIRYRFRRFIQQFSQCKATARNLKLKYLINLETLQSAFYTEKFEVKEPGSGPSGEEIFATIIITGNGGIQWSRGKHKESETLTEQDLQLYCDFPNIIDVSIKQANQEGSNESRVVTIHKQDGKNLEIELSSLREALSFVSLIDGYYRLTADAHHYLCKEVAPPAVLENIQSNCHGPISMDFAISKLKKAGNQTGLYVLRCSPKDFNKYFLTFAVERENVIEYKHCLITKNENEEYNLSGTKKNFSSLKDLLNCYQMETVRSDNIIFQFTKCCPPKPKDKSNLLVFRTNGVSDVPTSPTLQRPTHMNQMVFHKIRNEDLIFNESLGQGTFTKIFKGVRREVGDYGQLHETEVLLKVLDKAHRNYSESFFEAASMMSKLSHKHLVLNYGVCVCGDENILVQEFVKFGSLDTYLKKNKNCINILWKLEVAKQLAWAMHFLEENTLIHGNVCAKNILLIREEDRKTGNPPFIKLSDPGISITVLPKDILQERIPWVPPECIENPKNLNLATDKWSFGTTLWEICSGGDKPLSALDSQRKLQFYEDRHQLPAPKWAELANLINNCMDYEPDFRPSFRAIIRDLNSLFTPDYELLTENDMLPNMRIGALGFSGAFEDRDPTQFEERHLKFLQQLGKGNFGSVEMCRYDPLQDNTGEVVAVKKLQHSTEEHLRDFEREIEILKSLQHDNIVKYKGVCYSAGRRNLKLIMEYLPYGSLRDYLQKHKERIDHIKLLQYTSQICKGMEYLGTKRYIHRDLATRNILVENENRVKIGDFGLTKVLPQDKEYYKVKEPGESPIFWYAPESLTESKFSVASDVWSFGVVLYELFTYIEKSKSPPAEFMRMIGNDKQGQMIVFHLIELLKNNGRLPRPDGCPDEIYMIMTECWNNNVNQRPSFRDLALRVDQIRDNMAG
Sequence of Mast/stem cell growth factor receptor Kit (Homo sapiens) (P10721 whole entry, the tested form may be a part): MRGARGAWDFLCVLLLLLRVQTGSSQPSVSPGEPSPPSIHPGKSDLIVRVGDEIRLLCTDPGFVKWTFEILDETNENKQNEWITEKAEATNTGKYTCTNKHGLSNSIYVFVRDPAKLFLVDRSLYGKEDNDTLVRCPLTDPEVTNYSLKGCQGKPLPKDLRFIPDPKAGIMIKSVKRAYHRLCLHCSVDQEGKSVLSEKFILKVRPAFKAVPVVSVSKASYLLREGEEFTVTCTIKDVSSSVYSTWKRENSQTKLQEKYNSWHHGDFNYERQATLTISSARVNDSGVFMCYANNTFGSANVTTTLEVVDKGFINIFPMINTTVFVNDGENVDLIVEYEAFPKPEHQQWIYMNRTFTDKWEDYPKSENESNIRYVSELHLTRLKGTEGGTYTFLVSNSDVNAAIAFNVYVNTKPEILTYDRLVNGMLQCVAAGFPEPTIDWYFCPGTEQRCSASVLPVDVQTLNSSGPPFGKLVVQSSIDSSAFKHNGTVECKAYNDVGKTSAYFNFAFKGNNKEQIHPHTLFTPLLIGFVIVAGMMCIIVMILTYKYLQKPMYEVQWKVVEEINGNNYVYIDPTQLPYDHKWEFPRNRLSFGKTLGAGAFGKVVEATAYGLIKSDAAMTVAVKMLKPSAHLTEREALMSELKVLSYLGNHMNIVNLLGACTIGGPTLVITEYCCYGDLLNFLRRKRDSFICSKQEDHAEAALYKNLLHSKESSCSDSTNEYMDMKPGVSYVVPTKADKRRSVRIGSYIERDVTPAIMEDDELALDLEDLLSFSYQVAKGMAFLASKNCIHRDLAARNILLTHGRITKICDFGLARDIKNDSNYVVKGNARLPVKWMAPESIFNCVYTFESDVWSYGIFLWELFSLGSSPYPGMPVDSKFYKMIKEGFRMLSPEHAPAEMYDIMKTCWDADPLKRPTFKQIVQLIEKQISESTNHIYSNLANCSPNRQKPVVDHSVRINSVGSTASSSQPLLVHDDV
Sequence of Serine/threonine-protein kinase Nek10 (Homo sapiens) (Q6ZWH5 whole entry, the tested form may be a part): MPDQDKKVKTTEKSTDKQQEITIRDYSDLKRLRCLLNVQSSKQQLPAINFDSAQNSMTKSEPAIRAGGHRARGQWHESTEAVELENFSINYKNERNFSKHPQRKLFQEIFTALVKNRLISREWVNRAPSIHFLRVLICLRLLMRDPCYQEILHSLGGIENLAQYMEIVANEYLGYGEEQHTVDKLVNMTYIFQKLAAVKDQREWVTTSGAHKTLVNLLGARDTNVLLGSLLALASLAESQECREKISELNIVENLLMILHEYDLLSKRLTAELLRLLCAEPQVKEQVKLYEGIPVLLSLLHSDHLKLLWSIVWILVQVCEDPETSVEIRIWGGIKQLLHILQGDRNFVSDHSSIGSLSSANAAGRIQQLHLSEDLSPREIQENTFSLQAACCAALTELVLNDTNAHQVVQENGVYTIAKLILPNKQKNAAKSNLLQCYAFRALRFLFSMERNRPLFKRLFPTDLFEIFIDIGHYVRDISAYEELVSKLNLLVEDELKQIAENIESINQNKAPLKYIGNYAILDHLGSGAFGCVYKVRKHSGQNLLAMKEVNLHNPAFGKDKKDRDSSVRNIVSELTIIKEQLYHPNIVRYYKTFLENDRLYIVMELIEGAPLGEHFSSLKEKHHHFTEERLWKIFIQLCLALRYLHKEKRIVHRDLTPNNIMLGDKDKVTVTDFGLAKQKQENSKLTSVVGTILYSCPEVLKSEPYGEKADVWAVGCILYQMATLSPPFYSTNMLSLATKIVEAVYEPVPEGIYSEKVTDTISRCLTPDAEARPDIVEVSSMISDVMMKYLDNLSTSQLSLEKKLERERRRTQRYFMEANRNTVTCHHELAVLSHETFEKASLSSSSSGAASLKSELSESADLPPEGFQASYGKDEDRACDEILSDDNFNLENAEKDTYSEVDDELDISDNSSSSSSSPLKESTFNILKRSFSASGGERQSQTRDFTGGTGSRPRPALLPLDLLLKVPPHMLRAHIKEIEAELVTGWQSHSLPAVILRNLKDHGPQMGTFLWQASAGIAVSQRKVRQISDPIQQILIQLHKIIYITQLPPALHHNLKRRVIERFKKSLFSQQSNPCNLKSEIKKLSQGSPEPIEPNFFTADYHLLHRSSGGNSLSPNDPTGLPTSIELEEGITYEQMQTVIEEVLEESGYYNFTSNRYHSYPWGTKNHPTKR
Sequence of Ribosomal protein S6 kinase alpha-2 (Homo sapiens) (Q15349 whole entry, the tested form may be a part): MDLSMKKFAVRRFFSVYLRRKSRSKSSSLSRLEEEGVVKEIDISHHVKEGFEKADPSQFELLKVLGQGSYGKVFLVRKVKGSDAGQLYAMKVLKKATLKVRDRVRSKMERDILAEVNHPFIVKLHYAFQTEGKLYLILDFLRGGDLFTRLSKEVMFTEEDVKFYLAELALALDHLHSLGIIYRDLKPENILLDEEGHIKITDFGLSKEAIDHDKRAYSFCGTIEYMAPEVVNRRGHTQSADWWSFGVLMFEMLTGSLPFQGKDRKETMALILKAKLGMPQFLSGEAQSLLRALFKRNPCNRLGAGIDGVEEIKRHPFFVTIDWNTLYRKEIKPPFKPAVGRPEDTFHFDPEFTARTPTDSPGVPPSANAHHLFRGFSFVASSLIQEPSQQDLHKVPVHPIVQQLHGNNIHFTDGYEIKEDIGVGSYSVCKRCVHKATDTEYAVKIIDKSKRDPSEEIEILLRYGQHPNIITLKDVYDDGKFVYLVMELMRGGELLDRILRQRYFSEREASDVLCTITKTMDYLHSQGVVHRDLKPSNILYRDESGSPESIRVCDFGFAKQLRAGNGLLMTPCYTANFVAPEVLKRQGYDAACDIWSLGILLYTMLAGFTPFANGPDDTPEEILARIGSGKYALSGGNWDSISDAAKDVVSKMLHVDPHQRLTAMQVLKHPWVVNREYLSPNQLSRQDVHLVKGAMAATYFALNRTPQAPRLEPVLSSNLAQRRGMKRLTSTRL

## C=CC(=O)Nc1cc(Nc2cc(-c3cccc(NC(=O)c4ccc(C(C)(C)C)cc4)c3C)cn(C)c2=O)ccc1C(=O)N1CCOCC1
[1]
  Activity: 95%
[2]
  Activity: 86%
[3]
  Activity: 83%
[4]
  Activity: 100%
[5]
  Activity: 100%
[6]
  Activity: 100%
[7]
  Activity: 100%
[8]
  Activity: 93%
[9]
  Activity: 93%
[10]
  Activity: 79%
[11]
  Activity: 97%
[12]
  Activity: 100%
[13]
  Activity: 96%
[14]
  Activity: 100%
[15]
  Activity: 98%
[16]
  Activity: 92%
[17]
  Activity: 73%
[18]
  Activity: 100%
[19]
  Activity: 100%
[20]
  Activity: 99%
[21]
  Activity: 89%
[22]
  Activity: 100%
[23]
  Activity: 95%
[24]
  Activity: 91%
